According to US9428507B2, “Compounds for the treatment of malaria” (The Broad Institute, Inc., priority 2013, dated 2016):
Where two headings read alike, the source gives them in different places.

Columns and labels:
[1] = tested on: P. falciparum 3D7; experiment: In vitro P. falciparum blood-stage assay, strain 3D7; format: cell-based; conditions: Plasmodium falciparum
Procedure: (§1) Strains of Plasmodium falciparum (Dd2, 3D7, D6, K1, NF54, V1/3, HB3, 7G8, FCB, TM90C2B) were obtained from Malaria Research and Reference Reagent Resource Center (MR4). P. falciparum isolates were maintained with O-positive human blood in an atmosphere of 93% N2, 4% CO2, 3% O2 at 37° C. in complete culturing medium (10.4 g/L RPMI 1640, 5.94 g/L HEPES, 5 g/L albumax II, 50 mg/L hypoxanthine, 2.1 g/L sodium bicarbonate, 10% human serum and 43 mg/L gentamicin). Parasites were cultured in medium until the parasitemia reached 3-8%. Parasitemia was determined by checking at least 500 red blood cells from a Giemsa-stained blood smear. For the compound screening, a parasite suspension at 2.0% parasitemia and 2.0% hematocrit was created with medium. 25 μl of medium was dispensed into 384-well, black, clear-bottom plates. 100 nl of compounds in DMSO was transferred into the assay plates along with control compound (mefloquine). Next, 25 μl of the parasite suspension in medium was dispensed into the assay plates such that the final parasitemia was 1% and the final hematocrit was 1%. The assay plates were incubated for 72 hours at 37° C. […] The assay plates were read with 505 dichroic mirrors with 485-nm excitation and 530-nm emission settings.

[2] = tested on: P. falciparum K1; experiment: In vitro P. falciparum blood-stage assay, strain K1; format: cell-based; conditions: Plasmodium falciparum
Procedure: as §1

[3] = tested on: P. falciparum NF54; experiment: In vitro P. falciparum blood-stage assay, strain NF54; format: cell-based; conditions: Plasmodium falciparum
Procedure: as §1

[4] = tested on: P. falciparum HB3; experiment: In vitro P. falciparum blood-stage assay, strain HB3; format: cell-based; conditions: Plasmodium falciparum
Procedure: as §1

[5] = tested on: P. falciparum 7G8; experiment: In vitro P. falciparum blood-stage assay, strain 7G8; format: cell-based; conditions: Plasmodium falciparum
Procedure: as §1

[6] = tested on: P. falciparum TM90C2B; experiment: In vitro P. falciparum blood-stage assay, strain TM90C2B; format: cell-based; conditions: Plasmodium falciparum
Procedure: as §1

[7] = tested on: P. falciparum asexual erythocytic stage; experiment: Erythrocytic stage, asexual (P. falciparum); format: cell-based; conditions: Plasmodium falciparum
Procedure: as §1

[8] = tested on: P. cynomolgi; experiment: In vitro P. cynomolgi liver stage assay in primary rhesus monkey hepatocytes; format: cell-based; conditions: Plasmodium cynomolgi, Hepatocyte, in Macaca mulatta
Procedure: An in vitro P. cynomolgi liver stage assay was performed as described in Zeeman et al. Antimicrobial Agents and Chemotherapy, 2014, 58:1586-1595. 96-well plates are seeded with freshly isolated or thawed cryopreserved stocks of primary rhesus monkey hepatocytes one or two days before infection with 5×10^4 freshly dissected P. cynomolgisporozoites per well. After 2-3 h of sporozoite invasion into the hepatocytes, culture medium is exchanged for culture medium containing appropriate compound dilutions. Initially, compounds are tested in duplicate in 3 dilutions: 0.1, 1 and 10 μM. Plates are incubated for 6 days with medium exchange (including compound dilutions) every other day. Plates are fixed in methanol and parasites are stained with rabbit anti-PcyHSP70 antiserum in the presence of DAPI to stain the nuclei. Plates are automatically counted in a high-content imager (Operetta®) and small parasites (hypnozoites, s.f.) and large schizonts (I.f.) are recorded, as well as number of hepatocytes as a measure for cytotoxic effects of the compounds. Controls include uninfected hepatocytes, sporozoite infected wells without compound and infected wells with primaquine and atovaquone. When activity is recorded and reported, a more extensive dilution curve can be evaluated: a 7-point 3-fold dilution series from days 0-6.

[9] = tested on: P. berghei (ANKA GFP-luc) blood stage parasites; experiment: In vivo P. berghei blood-stage assay; set-up: species or system CD-1 mice; conditions: 50 mg/kg 4x, p.o., T/E
Procedure: CD-1 mice (n=4 per experimental group; female; 6-7-week-old; 20-24 g) were inoculated with 1×10^6 P. berghei (ANKA GFP-luc) blood stage parasites intravenously 24 hours before treatment and compounds were administered orally (at 0 hour). Parasitemia was monitored by the In vivo Imaging System (IVIS 100, Xenogen; Caliper Life Sciences) to acquire the bioluminescence signal. In addition, blood smear samples were obtained from each mouse on day 4 after inoculation, stained with Giemsa, and viewed under a microscope for visual detection of blood parasitemia. Animals with parasitemia exceeding 20% were euthanized.

[10] = tested on: P. berghei (ANKA GFP-luc) sporozoites; experiment: In vivo P. berghei liver-stage assay; set-up: species or system CD-1 mice; conditions: orally at 50 mg/kg two hours after sporozoite inoculation
Procedure: CD-1 mice (n=4 per experimental group; female; 6-7-week-old; 20-24 g) were inoculated intravenously with 1×10^5 freshly isolated P. berghei(ANKA GFP-luc) sporozoites intravenously, and compounds were administered orally at 50 mg/kg two hours later. Bioluminescence signals from the transgenic parasites were monitored by the In vivo Imaging System (IVIS 100, Xenogen; Caliper Life Sciences). Animals with parasitemia exceeding 20% were euthanized.

## COc1ccc2c3c([nH]c2c1)[C@H](CO)N(C(C)=O)CC31CCN(C(=O)Nc2ccccc2F)CC1 [Compound 15, (R)-2′-acetyl-N-(2-fluorophenyl)-1′-(hydroxymethyl)-7′-methoxy-1′,2′,3′,9′-tetrahydrospiro [piperidine-4,4′-pyrido[3,4-b]indole]-1-carboxamide]
[1]
  IC50: 65 nM
[2]
  IC50: 91 nM
[3]
  IC50: 88 nM
[4]
  IC50: 147 nM
[5]
  IC50: 113 nM
[6]
  IC50: 104 nM
[7]
  IC50: 0.064 µM
[8]; large schizonts (l.f.), read-out: IC50 exo-erythrocytic stage P. cynomolgi (l.f)
  IC50: 0.832 µM
[8]; small parasites (hypnozoites, s.f.), read-out: IC50 exo-erythrocytic stage P. cynomolgi (s.f)
  IC50: 0.344 µM
[9]
  % Activity: 94.20%
  % of control: 5.80%
  Avg. Mouse survival: 6.3 days
[9]; mouse M1
  Mouse survival in days, M1: 6 days
  Parasitized RBC over 100, M1: 3.70
[9]; mouse M2
  Mouse survival in days, M2: 6 days
  Parasitized RBC over 100, M2: 3.20
[9]; mouse M3
  Mouse survival in days, M3: 7 days
  Parasitized RBC over 100, M3: 2.80
[10]
  Parasitemia of treated animals (untreated controls: systemic parasitemia by day four): remained parasite free
[10]; bioluminescence
  Inhibition of the liver stage of P. berghei in vivo (FIG. 1): inhibit the liver stage
